Experimental data published in ChEMBL document CHEMBL2163297, “Discovery of novel PI3-kinase δ specific inhibitors for the treatment of rheumatoid arthritis: taming CYP3A4 time-dependent inhibition” (J Med Chem, 2012).

Tests used:
[1] = Selectivity ratio of IC50 for PI3Kalpha to IC50 for PI3Kdelta
[2] = biological target: T1, Phosphatidylinositol 4,5-bisphosphate 3-kinase catalytic subunit delta isoform (Homo sapiens, UniProt O00329); assay: Inhibition of human PI3Kdelta-mediated AKT phosphorylation at S473 in Ri-1 cells after 30 mins by electrochemiluminescence assay in presence of human serum albumin and alpha1 acid glycoprotein; type: cell-based
T1 sequence (O00329 whole entry): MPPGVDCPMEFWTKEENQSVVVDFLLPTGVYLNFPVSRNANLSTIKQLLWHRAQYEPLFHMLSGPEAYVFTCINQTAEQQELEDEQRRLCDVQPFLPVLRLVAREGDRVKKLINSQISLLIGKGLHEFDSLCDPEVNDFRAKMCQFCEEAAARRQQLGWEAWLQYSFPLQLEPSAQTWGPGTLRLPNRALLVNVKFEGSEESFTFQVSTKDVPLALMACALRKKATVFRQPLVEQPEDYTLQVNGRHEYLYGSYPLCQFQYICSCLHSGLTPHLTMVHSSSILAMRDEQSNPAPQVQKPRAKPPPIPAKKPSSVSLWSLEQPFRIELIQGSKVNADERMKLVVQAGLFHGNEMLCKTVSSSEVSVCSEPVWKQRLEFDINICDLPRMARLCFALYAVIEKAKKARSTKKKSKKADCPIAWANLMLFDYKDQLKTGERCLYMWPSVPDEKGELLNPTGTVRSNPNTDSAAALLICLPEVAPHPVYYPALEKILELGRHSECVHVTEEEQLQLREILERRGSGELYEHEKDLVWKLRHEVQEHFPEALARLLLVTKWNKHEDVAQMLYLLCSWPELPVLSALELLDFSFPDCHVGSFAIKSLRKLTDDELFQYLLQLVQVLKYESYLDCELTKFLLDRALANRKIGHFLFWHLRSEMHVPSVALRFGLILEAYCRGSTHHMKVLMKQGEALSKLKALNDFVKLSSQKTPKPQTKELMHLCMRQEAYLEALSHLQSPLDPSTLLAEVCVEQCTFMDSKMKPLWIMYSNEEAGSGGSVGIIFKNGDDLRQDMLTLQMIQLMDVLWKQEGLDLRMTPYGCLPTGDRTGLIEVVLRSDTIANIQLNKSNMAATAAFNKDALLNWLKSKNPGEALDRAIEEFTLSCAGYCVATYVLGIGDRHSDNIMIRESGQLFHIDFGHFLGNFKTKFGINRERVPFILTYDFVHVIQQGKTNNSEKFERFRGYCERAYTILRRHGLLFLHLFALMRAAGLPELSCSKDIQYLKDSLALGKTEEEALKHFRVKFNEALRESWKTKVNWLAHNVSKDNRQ

[3] = biological target: T1, Phosphatidylinositol 4,5-bisphosphate 3-kinase catalytic subunit delta isoform
Description: Binding affinity to PI3Kdelta after 30 mins by competitive fluorescence polarization assay

[4] = biological target: T2, Phosphatidylinositol 4,5-bisphosphate 3-kinase catalytic subunit delta isoform (Homo sapiens) (UniProt O00329); assay: Ratio of IC50 for human PI3Kdelta-mediated AKT phosphorylation at S473 in Ri-1 cells to IC50 for PI3Kdelta; type: cell-based
T2 sequence (whole entry): T1 sequence (O00329 whole entry)

[5] = Selectivity ratio of IC50 for PI3Kgamma to IC50 for PI3Kdelta
Cytochrome P450 3A4 [6] = biological target: T3, Cytochrome P450 3A4 (Homo sapiens, UniProt P08684); assay: (§1) Time dependent inhibition of CYP3A4 in human liver microsomes preincubated for 30 mins; type: ADME, Microsome
T3 sequence (P08684 whole entry): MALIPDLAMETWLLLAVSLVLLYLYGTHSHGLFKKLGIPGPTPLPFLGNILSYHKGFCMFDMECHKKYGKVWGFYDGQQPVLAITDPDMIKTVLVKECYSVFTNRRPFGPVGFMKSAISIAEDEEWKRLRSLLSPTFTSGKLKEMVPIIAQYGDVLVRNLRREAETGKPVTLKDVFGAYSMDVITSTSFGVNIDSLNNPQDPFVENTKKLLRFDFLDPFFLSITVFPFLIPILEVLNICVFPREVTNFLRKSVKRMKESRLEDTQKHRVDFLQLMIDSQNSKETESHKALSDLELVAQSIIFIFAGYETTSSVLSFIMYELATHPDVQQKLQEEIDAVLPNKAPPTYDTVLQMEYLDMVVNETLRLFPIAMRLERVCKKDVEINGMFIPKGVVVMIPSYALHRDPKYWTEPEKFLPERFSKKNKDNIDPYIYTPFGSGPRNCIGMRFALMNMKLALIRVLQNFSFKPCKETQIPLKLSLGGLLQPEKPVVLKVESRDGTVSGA

[7] = Selectivity ratio of IC50 for PI3Kbeta to IC50 for PI3Kdelta
Cytochrome P450 3A4 [8] = biological target: T3, Cytochrome P450 3A4; assay: Inhibition of CYP3A4 in human liver microsomes; type: ADME, Microsome; conditions: TDE = time-dependent effect
[9] = Clearance in […] Wistar rat at 0.5 mg/kg, iv and 2 mg/kg, po; type: ADME, organism-based; conditions: in vivo
[10] = Volume of distribution at steady state in […] Wistar rat at 0.5 mg/kg, iv and 2 mg/kg, po; type: ADME, organism-based; conditions: in vivo, read-out: Vdss
Liver microsomes [11] = assay: Metabolic stability in rat liver microsomes; type: ADME, Microsome
Liver microsomes [12] = assay: Metabolic stability in human liver microsomes; type: ADME, Microsome
CYP3A4 = CYP3A4 (Homo sapiens, UniProt P08684); assay: as §1; type: ADME, Microsome; conditions: human, liver microsomes
Chain of CYP3A4 (P08684 whole entry): as above

[13] = Oral bioavailability in […] Wistar rat at 2 mg/kg; type: ADME, organism-based; conditions: in vivo

Ratio IC50 [1]	IC50 [2]	IC50 [3]	Ratio IC50 [5]	IC50 (Cytochrome P450 3A4 [6])	Ratio IC50 [7]	Compound	other results
14	970 nM	23 nM	–	–	–	CN(C)C1CCN(Cc2cc3nc(-n4cnc5ccccc54)nc(N4CCOCC4)c3s2)CC1	Ratio IC50 [4]: 42
29	374 nM	2.7 nM	233	> 10000 nM	252	Cc1nc2ccccc2n1-c1nc(N2CCOCC2)c2sc(CN3CCC(N(C)C)CC3)cc2n1	–
226	29 nM	1.8 nM	–	9100 nM	–	CN(C)C1CCN(Cc2cc3nc(-c4c(F)ccc5[nH]ccc45)nc(N4CCOCC4)c3s2)CC1	Ratio IC50 [4]: 16
18	–	134 nM	75	> 10000 nM	75	Cn1ccc2c(-c3nc(N4CCOCC4)c4sc(CN5CCN(C(C)(C)C(N)=O)CC5)cc4n3)cccc21	–
96	–	6 nM	350	600 nM	137	CC(C)(C(N)=O)N1CCN(Cc2cc3nc(-c4c(F)cc(F)c5[nH]ccc45)nc(N4CCOCC4)c3s2)CC1	–
41	–	0.67 nM	243	3200 nM	40	CC(C)(C(N)=O)N1CCN(Cc2cc3nc(-c4cncc5[nH]ccc45)nc(N4CCOCC4)c3s2)CC1	–
–	–	–	–	> 10000 nM	–	CCc1nc2ccccc2n1-c1nc(N2CCOCC2)c2sc(CN3CCC(C(C)(C)O)CC3)cc2n1	–
122	–	1.1 nM	715	< 100 nM	101	Cc1cc2c(-c3nc(N4CCOCC4)c4sc(CN5CCN(C(C)(C)C(N)=O)CC5)cc4n3)cccc2[nH]1	–
22	–	1.7 nM	268	–	25	CS(=O)(=O)N1CCN(Cc2cc3nc(-c4cccc5[nH]ccc45)nc(N4CCOCC4)c3s2)CC1	inhibition (INH) (Cytochrome P450 3A4 [8]): tde
144	2000 nM	29 nM	–	–	–	Cc1ncc2ccccc2c1-c1nc(N2CCOCC2)c2sc(CN3CCC(N(C)C)CC3)cc2n1	–
21	180 nM	27 nM	–	–	–	CN(C)C1CCN(Cc2cc3nc(-c4cccc5nccn45)nc(N4CCOCC4)c3s2)CC1	–
129	–	1.8 nM	1440	–	104	CC(C)(C(N)=O)N1CCN(Cc2cc3nc(-c4cccc5[nH]ccc45)nc(N4CCOCC4)c3s2)CC1	inhibition (INH) (Cytochrome P450 3A4 [8]): tde
86	–	3.5 nM	2830	> 10000 nM	46	CC(C)(C(N)=O)N1CCN(Cc2cc3nc(-c4nccc5[nH]ccc45)nc(N4CCOCC4)c3s2)CC1	–
88	–	5.6 nM	–	–	–	CN(C)C1CCN(Cc2cc3nc(-c4c[nH]c5ccccc45)nc(N4CCOCC4)c3s2)CC1	–
50	102 nM	2.3 nM	112	> 10000 nM	815	CCc1nc2ccccc2n1-c1nc(N2CCOCC2)c2sc(CN3CCN(C4COC4)CC3(C)C)cc2n1	–
98	1300 nM	12 nM	–	–	–	Cc1cccc(-c2nc(N3CCOCC3)c3sc(CN4CCC(N(C)C)CC4)cc3n2)c1	–
77	–	0.48 nM	566	510 nM	80	CC(C)(C(N)=O)N1CCN(Cc2cc3nc(-c4cc(F)cc5[nH]ccc45)nc(N4CCOCC4)c3s2)CC1	–
208	–	3.2 nM	691	1200 nM	275	CC(C)(C(N)=O)N1CCN(Cc2cc3nc(-c4cc(C#N)cc5[nH]ccc45)nc(N4CCOCC4)c3s2)CC1	–
194	–	3 nM	1880	1500 nM	102	CC(C)(C(N)=O)N1CCN(Cc2cc3nc(-c4c(F)ccc5[nH]ccc45)nc(N4CCOCC4)c3s2)CC1	clearance [9]: 31.3 mL/min/kg; Vd [10]: 2.38 L/kg; Stability (Liver microsomes [11]): 90.8%; Stability (Liver microsomes [12]): 82.5%; kinact at 30 min (CYP3A4): 0.00123 s⁻¹; Ki (Cytochrome P450 3A4 [6]): 6600 nM; bioavailability [13]: 75.2%
42	–	9 nM	806	7000 nM	69	Fc1ccc2[nH]ccc2c1-c1nc(N2CCOCC2)c2sc(CN3CCN4CCOC[C@H]4C3)cc2n1	clearance [9]: 25.2 mL/min/kg; Vd [10]: 2.76 L/kg; Stability (Liver microsomes [11]): 72.5%; Stability (Liver microsomes [12]): 68.7%; kinact at 30 min (CYP3A4): 0.0008 s⁻¹; Ki (Cytochrome P450 3A4 [6]): 78000 nM; bioavailability [13]: 75.5%
17	–	4.3 nM	134	> 10000 nM	111	Cc1nc2ccccc2n1-c1nc(N2CCOCC2)c2sc(CN3CCN(C(C)(C)C(N)=O)CC3)cc2n1	–
2	79 nM	4.3 nM	14	> 10000 nM	12	CCc1nc2ccccc2n1-c1nc(N2CCOCC2)c2sc(CN3CCN(S(C)(=O)=O)CC3)cc2n1	–
39	3200 nM	16 nM	–	–	–	CN(C)C1CCN(Cc2cc3nc(-n4ncc5ccccc54)nc(N4CCOCC4)c3s2)CC1	–
54	420 nM	10 nM	–	–	–	CN(C)C1CCN(Cc2cc3nc(-n4ccc5ccccc54)nc(N4CCOCC4)c3s2)CC1	–
9	–	3.1 nM	153	–	54	CC(C)(C(N)=O)N1CCN(Cc2cc3nc(-c4cccc5[nH]ncc45)nc(N4CCOCC4)c3s2)CC1	–
65	–	9.8 nM	–	–	–	CN(C)C1CCN(Cc2cc3nc(-c4n[nH]c5ccccc45)nc(N4CCOCC4)c3s2)CC1	–
8	3400 nM	41 nM	–	–	–	CN(C)C1CCN(Cc2cc3nc(-c4cccc5c4CC(=O)N5)nc(N4CCOCC4)c3s2)CC1	–
30	–	2.3 nM	81	< 100 nM	103	CC(C)(C(N)=O)N1CCN(Cc2cc3nc(-c4ccnc5[nH]ccc45)nc(N4CCOCC4)c3s2)CC1	–
